Where two headings read alike, the source gives them in different places.

The test system of data set [1] is Capan-1 human pancreatic cancer tumors. As to conditions: for T − C: time to reach 1 g.
The nature of data set [2]: in vivo. As to conditions: male, Balb, Nu/Nu, mouse, plasma, 10 mg/kg; for Vd / clearance: iv; for AUC / Cmax / half-life: po.
The conditions of data set [3]: mouse, 10 mg/kg, oral vs IV dose-normalized plasma AUC.
The test system of data set [4] is BRCA mutations and breast, ovarian and prostate cancer. As to conditions: 19 patients with BRCA mutations and breast, monotherapy; cited from earlier work.
[5] abbreviates: cpd. 1 100 mg/kg oral daily, days 1 to 14.
Setting [6] is: temozolomide 50 mg/kg oral, days 3, 4, 5, 6, 7 and 8.

Broadly, the Vd is a proportionality between amount in the body and measured concentration, not a real space. High values mean wide distribution into tissue, low ones little distribution into tissue. By clearance is commonly meant the rate of elimination divided by the concentration. Read a high clearance as efficient removal. One may read the AUC as concentration integrated over time. A lower AUC goes with less exposure. The Cmax is the maximum level reached in the sampled fluid or tissue. Usually half-life stands for the time needed for the level to fall by half in the phase considered. The low end stands for rapid decline, the high end for slow decline. As for `Cl.NCCOc1c(-c2ccc(Br)cc2)[nH]c(=O)c2cc(F)ccc12` [Compound 1, 4-(2-Amino-ethoxy)-3-(4-bromo-phenyl)-7-fluoro-2H-isoquinolin-1-one hydrochloride], in data set [1] (setting [5]), the “BWL (%)” value was determined as 3%, the “TGI (%)” value is 21%, the Toxicity is recorded as 0/7 and the “T − C” value worked out at 4 days. In data set [2], this compound came in with a Vd of 3.6 L/kg, a clearance of 12 mL/min/kg, an AUC of 27 µM·h and a peak concentration (Cmax) of 6000 nM. This compound showed a half-life in data set [2] of 3.9 h. Further, the “F on AUC” value in data set [3] turned out to be 107%.

In the case of `Cl.NCCOc1c(-c2ccc(N3CCOCC3)c(Br)c2)[nH]c(=O)c2cc(F)ccc12` [Compound 4, 4-(2-Amino-ethoxy)-3-(3-bromo-4-morpholin-4-yl-phenyl)-7-fluoro-2H-isoquinolin-1-one hydrochloride], in data set [2], the Vd stood at 7.8 L/kg, the clearance worked out at 44.5 mL/min/kg, the AUC was 5.6 µM·h and the Cmax came to 3000 nM. Further, the half-life in data set [2] was 1.43 h. Besides, the “F on AUC” value in data set [3] came to 83%.

`Cl.NCCOc1c(-c2ccc(Cl)cc2)[nH]c(=O)c2cc(F)ccc12` [Compound 8, 4-(2-Amino-ethoxy)-3-(4-chloro-phenyl)-7-fluoro-2H-isoquinolin-1-one hydrochloride]: in data set [2], the Vd was 5.2 L/kg, the clearance was found to be 28.2 mL/min/kg, the AUC was 7.5 µM·h and the concentration peaked (Cmax) at 2850 nM. Moreover, the half-life in data set [2] is 3 h. Also, in data set [3], the “F on AUC” value is 74%.

In data set [2], `Cl.NCCOc1c(-c2ccc(Br)cc2)[nH]c(=O)c2c(F)c(F)ccc12` [Compound 12, 4-(2-Amino-ethoxy)-3-(4-bromo-phenyl)-7,8-difluoro-2H-isoquinolin-1-one hydrochloride] returned a Vd of 4.5 L/kg, a clearance of 46.3 mL/min/kg, an AUC of 8.15 µM·h and a Cmax of 3150 nM. For the same compound, the half-life in data set [2] is 1.77 h. In data set [3], the “F on AUC” value is reported as 109%.

Regarding `Cc1cc(-c2[nH]c(=O)c3cc(F)ccc3c2OCCN)ccc1Cl.Cl` [Compound 13, 4-(2-Amino-ethoxy)-3-(4-chloro-3-methyl-phenyl)-7-fluoro-2H-isoquinolin-1-one hydrochloride], in data set [2], the Vd is 5.7 L/kg, the clearance came out at 45 mL/min/kg, the AUC came out at 10 µM·h and the maximum concentration (Cmax) came to 2000 nM. The same compound gave a half-life in data set [2] of 3 h. The “F on AUC” value in data set [3] turned out to be 128%.

In the case of `NCCOc1c(-c2ccc(Cl)c(Cl)c2)[nH]c(=O)c2cc(F)ccc12` [Compound 14, 4-(2-Amino-ethoxy)-3-(3,4-dichloro-phenyl)-7-fluoro-2H-isoquinolin-1-one], in data set [2], the distribution volume (Vd) was determined as 4.2 L/kg, the clearance amounted to 20.5 mL/min/kg, the AUC came to 20.3 µM·h and the Cmax was determined as 2800 nM. Also, the half-life in data set [2] is 3.5 h. In addition, the “F on AUC” value in data set [3] is recorded as 136%.

In data set [2], `COc1ccc(-c2[nH]c(=O)c3cc(F)ccc3c2OCCN)cc1F.Cl` [Compound 21, 4-(2-Amino-ethoxy)-7-fluoro-3-(3-fluoro-4-methoxy-phenyl)-2H-isoquinolin-1-one hydrochloride] showed a Vd of 6.5 L/kg, a clearance of 45.4 mL/min/kg, an AUC of 10.5 µM·h and a Cmax of 4600 nM. Moreover, the half-life in data set [2] was 3.9 h. Moreover, in data set [3], the “F on AUC” value was 133%.

Turning to `O=C(c1cc(Cc2n[nH]c(=O)c3ccccc23)ccc1F)N1CCN(C(=O)C2CC2)CC1` [Olaparib], the objective response rate in data set [4] was 47%.

Regarding `Cn1nnc2c(C(N)=O)ncn2c1=O` [temozolomide, reference compound], in data set [1] (setting [6]), the “BWL (%)” value is recorded as 2.5%, the “TGI (%)” value came to 13%, the Toxicity is listed as 0/7 and the “T − C” value came to 1 days.
